PubChem BioAssay AID248 (DTP/NCI, 2004)
Inconclusive results and toxic doses are left out. Rule as the data show it: active = T/C of 150% or more; inactive = T/C below 125%.

Tested on: L1210 leukemia ip in BDF1 mice, survival T/C
Assay: NCI In Vivo Anticancer Drug Screen. Data for tumor model L1210 Leukemia (intraperitoneal) in B6D2F1 (BDF1) mice
Conditions: endpoint: mean survival time, higher = longer survival
Outline: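 Survival endpoint. Drug-treated group vs vehicle group, expressed as T divided by C. Tumor passaged by transplantation.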

[1] = dose: 100.0 mg/kg/injection, schedule: Q01DX009 (ip), vehicle: saline with Tween-80
[2] = dose: 200.0 mg/kg/injection, schedule: Q01DX009 (ip), vehicle: saline with Tween-80
[3] = dose: 400.0 mg/kg/injection, schedule: Q01DX009 (ip), vehicle: saline with Tween-80
[4] = dose: 25.0 mg/kg/injection, schedule: Q04DX003 (ip), vehicle: saline
[5] = dose: 50.0 mg/kg/injection, schedule: Q04DX003 (ip), vehicle: saline
[6] = dose: 100.0 mg/kg/injection, schedule: Q04DX003 (ip), vehicle: saline
[7] = dose: 100.0 mg/kg/injection, schedule: Q01DX009 (ip), vehicle: saline
[8] = dose: 200.0 mg/kg/injection, schedule: Q01DX009 (ip), vehicle: saline
[9] = dose: 200.0 mg/kg/injection, schedule: Q04DX003 (ip), vehicle: saline
[10] = dose: 400.0 mg/kg/injection, schedule: Q04DX003 (ip), vehicle: saline
[11] = dose: 100.0 mg/kg/injection, schedule: Q01DX001 (ip), vehicle: saline
[12] = dose: 200.0 mg/kg/injection, schedule: Q01DX001 (ip), vehicle: saline
[13] = dose: 100.0 mg/kg/injection, schedule: Q01DX001 (ip), vehicle: carboxymethylcellulose (CMC)
[14] = dose: 200.0 mg/kg/injection, schedule: Q01DX001 (ip), vehicle: carboxymethylcellulose (CMC)
[15] = dose: 400.0 mg/kg/injection, schedule: Q01DX001 (ip), vehicle: carboxymethylcellulose (CMC)
[16] = dose: 100.0 mg/kg/injection, schedule: Q01DX009 (ip), vehicle: Klucel (hydroxypropylcellulose) (HPC)
[17] = dose: 200.0 mg/kg/injection, schedule: Q01DX009 (ip), vehicle: Klucel (hydroxypropylcellulose) (HPC)
[18] = dose: 400.0 mg/kg/injection, schedule: Q01DX009 (ip), vehicle: Klucel (hydroxypropylcellulose) (HPC)
[19] = dose: 50.0 mg/kg/injection, schedule: Q01DX009 (ip), vehicle: saline
[20] = dose: 400.0 mg/kg/injection, schedule: Q01DX001 (ip), vehicle: saline

Measured: T/C

CCOC(=O)CNC(=O)OCCOc1ccc(-c2ccccc2)cc1
inactive: [1] 98 % of control | [2] 97 % of control | [3] 95 % of control

CCCn1ccc(N)nc1=O
inactive: dose: 75.0 mg/kg/injection, schedule: Q01DX001 (ip), vehicle: Klucel (hydroxypropylcellulose) (HPC) 116 % of control | dose: 150.0 mg/kg/injection, schedule: Q01DX001 (ip), vehicle: Klucel (hydroxypropylcellulose) (HPC) 119 % of control | dose: 300.0 mg/kg/injection, schedule: Q01DX001 (ip), vehicle: Klucel (hydroxypropylcellulose) (HPC) 111 % of control

CCCSc1ccccn1
inactive: [4] 101 % of control | [5] 93 % of control | [6] 95 % of control

O=C(NCCO)Nc1ccccc1F
inactive: [7] 95 % of control | [6] 95 % of control | [8] 101 % of control | [9] 95 % of control | dose: 400.0 mg/kg/injection, schedule: Q01DX009 (ip), vehicle: saline 106 % of control | [10] 93 % of control

CCC(C(=O)OC)C1CCN(C)C(=O)C12CO2 (stereo not drawn)
inactive: dose: 25.0 mg/kg/injection, schedule: Q01DX001 (ip), vehicle: saline 93 % of control | [4] 95 % of control | dose: 25.0 mg/kg/injection, schedule: Q04DX003 (oral), vehicle: saline 100 % of control | dose: 50.0 mg/kg/injection, schedule: Q01DX001 (ip), vehicle: saline 104 % of control | [5] 95 % of control | dose: 50.0 mg/kg/injection, schedule: Q04DX003 (oral), vehicle: saline 98 % of control | [11] 97 % of control | [6] 97 % of control | dose: 100.0 mg/kg/injection, schedule: Q04DX003 (oral), vehicle: saline 96 % of control | [12] 103 % of control | [9] 97 % of control | dose: 200.0 mg/kg/injection, schedule: Q04DX003 (oral), vehicle: saline 107 % of control

COc1ccccc1CN1CCCN(Cc2ccccc2OC)C1c1cc(Br)c(OC)c(OC)c1
inactive: [13] 91 % of control | [14] 91 % of control | [15] 87 % of control

O=C(CCCCCCCCC(=O)Nc1cccc(C(F)(F)F)c1)Nc1cccc(C(F)(F)F)c1
inactive: [16] 101 % of control | [17] 92 % of control | [18] 95 % of control

OCc1nc2nc(Cl)c(Cl)nc2[nH]1
inactive: [19] 93 % of control | [7] 98 % of control | [6] 107 % of control | [8] 95 % of control | [9] 98 % of control | [10] 96 % of control

S=C(n1ccnc1)n1ccnc1
inactive: dose: 25.0 mg/kg/injection, schedule: Q01DX009 (ip), vehicle: saline 100 % of control | [4] 106 % of control | [19] 95 % of control | [5] 105 % of control | [7] 103 % of control | [6] 103 % of control | dose: 150.0 mg/kg/injection, schedule: Q01DX009 (ip), vehicle: saline 94 % of control | dose: 225.0 mg/kg/injection, schedule: Q01DX009 (ip), vehicle: saline 92 % of control

CC[n+]1ccc(-c2ccc(S(=O)(=O)[O-])cc2)o1
inactive: [5] 108 % of control | [13] 96 % of control | [11] 105 % of control | [6] 93 % of control | [14] 96 % of control | [12] 105 % of control | [9] 105 % of control | [15] 100 % of control | [20] 105 % of control

COc1cc2c(c(O)c1OC)c(=O)c1ccccc1n2C
inactive: dose: 60.0 mg/kg/injection, schedule: Q01DX Z (ip), vehicle: carboxymethylcellulose (CMC) 103 % of control | dose: 120.0 mg/kg/injection, schedule: Q01DX Z (ip), vehicle: carboxymethylcellulose (CMC) 102 % of control | dose: 240.0 mg/kg/injection, schedule: Q01DX Z (ip), vehicle: carboxymethylcellulose (CMC) 97 % of control

CCOC(=O)c1ccc(Cn2c(C)cc(=O)n(Cc3ccc(C(=O)OCC)cc3)c2=O)cc1
inactive: dose: 100.0 mg/kg/injection, schedule: Q01DX001 (ip), vehicle: Klucel (hydroxypropylcellulose) (HPC) 102 % of control | dose: 200.0 mg/kg/injection, schedule: Q01DX001 (ip), vehicle: Klucel (hydroxypropylcellulose) (HPC) 94 % of control | dose: 400.0 mg/kg/injection, schedule: Q01DX001 (ip), vehicle: Klucel (hydroxypropylcellulose) (HPC) 91 % of control

O=C1c2ccccc2-c2c(N=Cc3ccc4c(c3)OCO4)c(Br)cc(Br)c21
inactive: dose: 100.0 mg/kg/injection, schedule: Q01DX001 (ip), vehicle: other 93 % of control | dose: 200.0 mg/kg/injection, schedule: Q01DX001 (ip), vehicle: other 98 % of control | dose: 400.0 mg/kg/injection, schedule: Q01DX001 (ip), vehicle: other 95 % of control

Cc1ccc([N+](=O)[O-])cc1NC(=O)Sc1ccc(C(C)(C)C)cc1C
inactive: dose: 100.0 mg/kg/injection, schedule: Q04DX002 (ip), vehicle: saline 101 % of control | dose: 200.0 mg/kg/injection, schedule: Q04DX002 (ip), vehicle: saline 88 % of control | dose: 400.0 mg/kg/injection, schedule: Q04DX002 (ip), vehicle: saline 101 % of control

CSc1ccc(OC(=O)Nc2cc(C)ccc2C)cc1
inactive: [16] 97 % of control | dose: 100.0 mg/kg/injection, schedule: Q04DX003 (ip), vehicle: Klucel (hydroxypropylcellulose) (HPC) 109 % of control | [17] 107 % of control | dose: 200.0 mg/kg/injection, schedule: Q04DX003 (ip), vehicle: Klucel (hydroxypropylcellulose) (HPC) 107 % of control | dose: 400.0 mg/kg/injection, schedule: Q04DX003 (ip), vehicle: Klucel (hydroxypropylcellulose) (HPC) 107 % of control

CCCCCCC1(C)NC(=O)NC1=O (stereo not drawn)
inactive: [11] 102 % of control | [12] 100 % of control | [20] 96 % of control

CCCCCCCCCN1C(=O)c2ccccc2S1(=O)=O
inactive: dose: 222.0 mg/kg/injection, schedule: Q01DX Z (ip), vehicle: saline 100 % of control | dose: 333.0 mg/kg/injection, schedule: Q01DX Z (ip), vehicle: saline 97 % of control | dose: 500.0 mg/kg/injection, schedule: Q01DX Z (ip), vehicle: saline 91 % of control

NCC(=O)Nc1ccc(S(=O)(=O)c2ccc(NC(=O)CN)cc2)cc1
inactive: [11] 104 % of control | [12] 101 % of control | [20] 98 % of control

CN(C)C(=S)Sc1ccc([N+](=O)[O-])cc1
inactive: dose: 75.0 mg/kg/injection, schedule: Q01DX001 (ip), vehicle: other 103 % of control | dose: 150.0 mg/kg/injection, schedule: Q01DX001 (ip), vehicle: other 96 % of control | dose: 300.0 mg/kg/injection, schedule: Q01DX001 (ip), vehicle: other 91 % of control

CCOC(=O)C(CSCSC)NC(=O)/C=C/c1cccnc1 (stereo not drawn)
inactive: [1] 101 % of control | dose: 100.0 mg/kg/injection, schedule: Q04DX003 (ip), vehicle: saline with Tween-80 93 % of control | [2] 98 % of control | dose: 200.0 mg/kg/injection, schedule: Q04DX003 (ip), vehicle: saline with Tween-80 97 % of control | [3] 90 % of control | dose: 400.0 mg/kg/injection, schedule: Q04DX003 (ip), vehicle: saline with Tween-80 90 % of control

S=c1nc[nH]c2c1ncn2CCc1ccccc1
inactive: dose: 50.0 mg/kg/injection, schedule: Q01DX001 (ip), vehicle: carboxymethylcellulose (CMC) 115 % of control | [13] 101 % of control | [14] 112 % of control | [15] 95 % of control

CC12CCC(C1)C(C)(C)/C2=N\O (stereo not drawn)
inactive: [16] 96 % of control | dose: 100.0 mg/kg/injection, schedule: Q04DX002 (ip), vehicle: Klucel (hydroxypropylcellulose) (HPC) 100 % of control | [17] 88 % of control | dose: 200.0 mg/kg/injection, schedule: Q04DX002 (ip), vehicle: Klucel (hydroxypropylcellulose) (HPC) 96 % of control | [18] 92 % of control | dose: 400.0 mg/kg/injection, schedule: Q04DX002 (ip), vehicle: Klucel (hydroxypropylcellulose) (HPC) 96 % of control

Oc1ccc(-c2ccc(O)c(O)c2)cc1O
inactive: dose: 75.0 mg/kg/injection, schedule: Q01DX001 (ip), vehicle: carboxymethylcellulose (CMC) 100 % of control | dose: 150.0 mg/kg/injection, schedule: Q01DX001 (ip), vehicle: carboxymethylcellulose (CMC) 95 % of control
